The source of these data is patent US20250262299A1, “DOSING FOR TREATMENT WITH ANTI-FCRH5/ANTI-CD3 BISPECIFIC ANTIBODIES” (Genentech, Inc., priority 2022, published 2025).

The subject of one series is MM. The settings on record: lenalidomide maintenance, active vs. control; cited from earlier work.
A further series has as its system Fc (Fcγ) receptors. The settings on record: N297G non-glycosylated antibody; cited from earlier work.
Series [1] can be described thus: Compatibility testing in extension sets. The class given is physicochemical. The settings on record: IV infusion extension sets. The source says:
Cevostamab will be administered as a fixed dose independent of body weight. Cevostamab will be administered to patients by IV infusion using standard IV bags where applicable. […] The drug product will be delivered by IV bag infusion, with a final cevostamab volume determined by the dose.

The test system of series [2] is human MM cell lines and primary human MM plasma cells. Particulars: cells with a wide range of FcRH5 expression levels, including minimal expression; cited from earlier work.
A further series has as its system R/R MM. Kind of series: Study GO39775 / cevostamab monotherapy clinical studies in patients with R/R MM. The class given is in vivo, human. The source says: As of November 2021, two studies are ongoing to confirm the safety and efficacy of cevostamab in this patient population. As such, combination with lenalidomide is expected to deepen and prolong response in patients in remission on the following basis: • FcRH5 is a cell-surface antigen whose expression is restricted to cells of the B linage, including plasma cells. […] Rationale for Cevostamab Dose
The dosing schedule has been modified from a 21-day cycle to a 28-day cycle to accommodate lenalidomide dosing and to ease patient treatment burden. […] A lower target dose of 90 mg Q2W will be the starting point of dose escalation towards 132 mg. These doses have been selected based on the full body of evidence available across cevostamab studies, considering PD, PK, safety, and efficacy data.

Where [3] appears, read: Study GO39775, 0.3/3.6/160 mg, patients with R/R MM.
Setting [4] is: Study GO39775, preliminary findings.
Setting [5] is: cevostamab monotherapy, patients with R/R MM.

With `Nc1cccc2c1CN(C1CCC(=O)NC1=O)C2=O` (stereo not drawn) [lenalidomide], in the series with MM, the “overall survival (OS)” value was “statistically significant increase” and the “progression-free survival (PFS)” value is recorded as “statistically significant increase”.
In the case of “cevostamab: Fc-engineered, humanized, full-length non-glycosylated IgG1 kappa T-cell-dependent bispecific antibody (TDB) that binds FcRH5 and CD3”, the “binding to Fc (Fcγ) receptors” value in the series on Fc (Fcγ) receptors is recorded as “minimal binding”. Also, the “stability in extension sets” value in series [1] is given as “stable in extension sets”. In series [2], the cell killing entry is reported as “broadly active in cell killing”. For the same molecule, the “safety of target dose” value in the series on R/R MM (Study GO39775, 160 mg every three weeks (Q3W)) was “found to be safe”. Also, in the series with R/R MM (setting [3]), the “induction of response with double step-up dosing” value was “effective at inducing a response” and the “safety of double step-up dosing” value is recorded as “safe”. Moreover, in the series on R/R MM (setting [4]), the “clinical response in patients with the lowest FcRH5 expression” value is recorded as “Clinical response has been observed” and the “objective response in relation to baseline FcRH5 expression” value is “able to achieve an objective response to cevostamab treatment regardless of baseline FcRH5 expression”. In the series on R/R MM (setting [5]), the efficacy result was “shown efficacy” and the safety profile entry was “acceptable safety profile”.
